Test system: 4T1 tumor
Assay: Therapeutic efficacy, 4T1 tumor-bearing mice
Description: (c) Tumor growth curves (n=6) and (d) overall survival curves (n=6) of 4T1 tumor-bearing mice. […] 95% confidence intervals were obtained by two-sided Student t-test analysis. […] Data are presented as mean±SD and analyzed by two-tailed Student's t-test.
FIG. 47 depicts the tumor control rate and body weights of mice. […] (c) Body weights of 4T1 tumor-bearing mice after intraperitoneal injection of saline, Oxa (6 mg/kg), aPD-L1 (10 mg/kg) and aPD-L1/Oxa at day 0, 2 and 4. […] Statistical significance was performed by two-tailed Student's t-test. ns: not significant, *P<0.05, **P<0.01, ***P<0.001, ****P<0.0001.
After tumor inoculation for one week, 4T1 tumor-bearing mice were administrated with aPD-L1 (10 mg/kg), Oxa (6 mg/kg) or the combination of aPD-L1 and Oxa (aPD-L1/Oxa) intraperitoneally every two days for three times.
The tumor control rate was calculated with the following formulas:
Vt0 means the volume of tumor on day 0, Vt means the volume at certain time, c means the control group (saline, without irradiation), and s means the group needed calculation.

How did the survival rate turn out when `O=C1[O][Pt]2([NH][C@@H]3CCCC[C@H]3[NH]2)[O]C1=O` [Oxa, oxaliplatin] was run?
Its survival rate is 50%.

And the “tumor control rate (TCR)” value (intraperitoneal, every two days for three times)?
Its value is 48%.

Reference: patent publication US20250099625A1, “TANDEM MOLECULAR FLUORESCENCE REPORTERS FOR DETECTION OF TUMOR-INFILTRATING LEUKOCYTES” (Nanyang Technological University, priority 2021, published 2025)
